Data reported in patent publication US20060199835A1, “Neuroprotective and anti-proliferative compounds” (priority 2004, published 2006).

How the values were obtained:
Format in all cases: cell-based
[1] = tested on: Human lymphoma jurkat cells; assay: Killing of cultured Jurkats with and without anti-Fas (propidium iodide, Facs); details: 19 hours
Experimental: Jurkats are a T-cell derived lymphoma cell line which expresses both FAS receptor and Fas-L. These cells, however, are only mildly sensitive to Fas-L/anti-Fas induced apoptosis. Select compounds were tested for their ability to kill jurkats. Additionally, we investigated the ability of select compounds to sensitize jurkats to anti-Fas mediated apoptosis.
Human lymphoma jurkat cells were cultured in suspension in 24 well plates. Jurkat cell were treated with test compounds either alone or in the presence of suboptimal doses of anti-Fas antibody. […] Cells were incubated with propidium iodide and the percentage of cells that incorporated the stain was counted by Facs.

[2] = tested on: Human prostate DU145 cells; assay: Killing of DU145 prostate cancer cells (Alamar Blue, 7 day treatment)
Experimental: Prostate cancer is often resistant to traditional chemotherapies. DU145 is representative prostated cancer cell line. DU145 cells were cultured in the presence of various concentrations of compound 136. Compound 136 kills 100% of the cells at 10 μM, with an IC50 of approximately 7 μM.
Human prostate DU145 cells were cultured in 96 well dishes. Cells were treated with various concentrations of test compounds for 7 days. Media was then removed and replaced with fresh media containing Alamar Blue. The cells were incubated for a further 4 hours and Alamar blue and conversion was assessed by fluorescence. Compound effectiveness was determined by assessing the reduction in Alamar blue bioconversion following 7 day treatment.

Human lung H460 cells = assay: Killing of H460 cells (Alamar Blue, 24 hour treatment)
Experimental: H460 is representative of a […] cancer cell line.
Human lung H460 cells (7000 cells/well) were cultured in 96 well dishes. Cells were treated with various concentrations of test compounds for 24 hours. Media was then removed and replaced with fresh media containing Alamar Blue. The cells were incubated for a further 4 hours and Alamar blue and conversion was assessed by fluorescence. Compound effectiveness was determined by assessing the reduction in Alamar blue bioconversion following 24 hour treatment.

[3] = Dose 3, with anti-Fas (5 ng/mL)
[4] = Dose 10, with anti-Fas (5 ng/mL)
[5] = Dose 0.3, with anti-Fas (5 ng/mL)
[6] = Dose 1, with anti-Fas (5 ng/mL)
[7] = Dose 30, with anti-Fas (5 ng/mL)

| Compound | Survival % Without Anti-Fas ([1]; Dose 3 (μM)) | Survival % With Anti-Fas [1, 3] | Survival % Without Anti-Fas ([1]; Dose 10 (μM)) | Survival % With Anti-Fas [1, 4] | also measured |
| --- | --- | --- | --- | --- | --- |
| N=C(N)SCCCn1c2ccccc2c2c3c(n4c5ccccc5cc4c21)C(=O)NC3=O [Example 145] | 93% | 35% | 11% |  |  |
| CN(C)CCCn1cc(C2=C(n3ccc4ccccc43)C(=O)NC2=O)c2cc(OCc3ccccc3)ccc21 [Example 136, 3-(5-benzyloxy-1-(3-dimethylaminopropyl)indol-3-yl)-4-(indol-1-yl)-pyrrole-2,5-dione] |  |  |  |  | cells killed ([2]; 10 μM): 100%; IC50 ([2]; Homo sapiens, DU-145, 168 h, 7 days of treatment): ~7 µM |
| Cc1cn(C2=C(c3cn(CCCSC(=N)N)c4ccc(OCc5ccccc5)cc34)C(=O)NC2=O)c2ccccc12 [Example 149, 3-(3-((amidiothio)propyl)-5-benzyloxyindol-3-yl)-4-(3-methylindol-1-yl)-pyrrole-2,5-dione] | >90% | 2% | 0% |  |  |
| N=C(N)SCCCn1cc(C2=C(n3ccc4ccccc43)C(=O)NC2=O)c2cc(OCc3ccccc3)ccc21 [Example 148, 3-(3-((amidiothio)propyl)-5-benzyloxyindol-3-yl)-4-(indol-1-yl)-pyrrole-2,5-dione] | >90% |  | 0% | 20% |  |
| Cc1cc2ccccc2n1C1=C(c2cn(CCCSC(=N)N)c3ccc(OCc4ccccc4)cc23)C(=O)NC1=O [Example 150, 3-(3-((amidiothio)propyl)-5-benzyloxyindol-3-yl)-4-(2-methylindol-1-yl)-pyrrole-2,5-dione] | >90% | 5% | 0% |  |  |
| N=C(N)SCCCn1cc(C2=C(n3ccc4cc(OCc5ccccc5)ccc43)C(=O)NC2=O)c2ccccc21 [Example 147, 3-(3-((amidiothio)propyl)indol-3-yl)-4-(5-benzyloxyindol-1-yl)-pyrrole-2,5-dione] | >90% | 20% | 0% |  |  |
| 3-(3-(amidinothio)propyl)indol-1-yl)-4-(5-benzyloxy-1-methylindol-3-yl)-4-pyrrole-2,5-dione [Example 168] | 46% | 1% | 1% | 0% | Survival % Without Anti-Fas ([1]; Dose 0.3 (μM)): 91%; Survival % With Anti-Fas [1, 5]: 49%; Survival % Without Anti-Fas ([1]; Dose 1 (μM)): 89%; Survival % With Anti-Fas [1, 6]: 49%; Survival % Without Anti-Fas ([1]; Dose 30 (μM)): 0%; Survival % With Anti-Fas [1, 7]: 0% |
| Cn1cc(C2=C(n3cc(CCCSC(=N)N)c4ccccc43)C(=O)NC2=O)c2ccccc21 [Example 167] | 50% | 5% | 0% | 0% | Survival % Without Anti-Fas ([1]; Dose 0.3 (μM)): 98%; Survival % With Anti-Fas [1, 5]: 43%; Survival % Without Anti-Fas ([1]; Dose 1 (μM)): 88%; Survival % With Anti-Fas [1, 6]: 17%; Survival % Without Anti-Fas ([1]; Dose 30 (μM)): 0%; Survival % With Anti-Fas [1, 7]: 0%; IC50 (Human lung H460 cells): ~3 µM |
| N=C(N)SCCCn1cc(C2=C(N3CCc4ccccc43)C(=O)NC2=O)c2ccccc21 [Example 159, 3-(3-((amidiothio)propyl)indol-3-yl)-4-(indolin-1-yl)-pyrrole-2,5-dione] | >90% | 10% | 17% |  |  |
| Cc1cn(C2=C(c3cn(CCCSC(=N)N)c4ccccc34)C(=O)NC2=O)c2ccccc12 [Example 146, 3-(3-((amidiothio)propyl)indol-3-yl)-4-(3-methylindol-1-yl)-pyrrole-2,5-dione] | >90% | 20% | 0% |  |  |
